Results as given in article PMC10480161, “Identification of potent and selective N-myristoyltransferase inhibitors of Plasmodium vivax liver stage hypnozoites and schizonts” (Nature Communications, 2023).
Values joined by “and” are separate entries in the source; they are usually repeats but may differ in a detail not shown here. Identical values can stand only once.

How the values were obtained:
HepG2 cells = test: HepG2 cytotoxicity assay (Live/Dead staining); settings: replicates
Procedure: Therefore, we assessed cytotoxicity in the human hepatoma HepG2 cell line. We required a PvNMT to HsNMT SI > 20 for further screening. HepG2 cells were exposed to the compounds at concentrations ranging from 1 to 20 µM for […], and toxicity was assessed via live-dead staining.
The viability of the HepG2 cell line following exposure to the compounds was determined by a Live/Dead cell assay kit (Invitrogen). Briefly, cells were added to a 96-well plate at a concentration of 5000 cells per well, excluding the exterior wells. Cells were exposed to the compounds at different concentrations ranging from 1 to 20 µM. Cells were washed every 24 h and supplemented with fresh doses of compounds. At 72 h post-treatment, 1 µM calcein-AM and 1 µM ethidium homodimer were added to the wells and incubated for 10 min at 37 °C. After washing with PBS, the cells were visualized with fluorescent microscopy (Keyence BZ-X700).

P. falciparum NF54 = test: P. falciparum blood stage assay (SYBR Green); format: cell-based, Plasmodium falciparum; settings: 72 h; for P. falciparum blood-stage development (parasite DNA level fluorescence): untreated = 129; for IC50: Plasmodium falciparum, NF54, ring-stage parasites, relative IC50
Procedure: To assess whether any of the PvNMTis developed here could qualify as TCP-1 candidates, we assessed the effect of each compound on blood-stage P. falciparum parasites, as there is currently no well-established in vitro platform for screening P. vivax blood-stage parasites. Synchronized P. falciparum NF54 ring-stage parasites were treated for 72 h with each compound at various concentrations, ranging from 0.625 µM to 10 µM, and parasite DNA replication was measured using a fluorescent DNA binding dye (SYBR Green).
Sorbitol-synchronized P. falciparum NF54 ring-stage parasites were cultured at a parasitemia of 0.5% and hematocrit of 1.5% in a 96-well microtiter plate. Parasites were treated with each NMT inhibitor compound at 0.625, 1.25, 2.5, 5, or 10 µM for 72 h. Direct lysis of the blood cells to release the parasite DNA was performed by adding 100 μl of LBS buffer containing SYBR green I DNA binding dye to each well. […] ICEstimator regression analysis (http://www.antimalarial-icestimator.net/) was used to obtain relative IC50 values for each compound.

P. vivax hypnozoites = test: P. vivax liver stage assay, hypnozoites; format: cell-based, Plasmodium vivax; settings: for Hypnozoites per well: Isolate 2, replicate wells (Figure 6d); for Number of liverstage hypnozoites per well: 20 µM, 8 dpi; for IC50: Plasmodium vivax, Hepatocyte, 120 h, primary human hepatocytes, treatment day 5 to 8 post-infection, isolate 2
Procedure: Finally, we evaluated the NMT-binding compounds against non-developing P. vivax hypnozoites. […] (Fig. 6A). […] We, therefore, evaluated the impact of all tested compounds on P. vivax hypnozoites using these two isolates.
Plasmodium vivax liver stage assays were performed as described previously. Cryopreserved primary human hepatocytes (Cat No. F00995-P) and hepatocyte culture medium (HCM) (InVitroGroTM CP Medium) were obtained from Bioreclamation IVT, Inc., (Baltimore, MD, USA). Briefly, we seeded 384-well plates with primary hepatocytes from a single donor lot at a density of 25,000 cells per well. We then infected the hepatocytes with 14,000 freshly hand-dissected sporozoites per well. Cells were exposed to the compounds at indicated concentrations from day 5 post-infection. We used Pi4K inhibitor MMV390048, at 20 µM, as a positive control to eliminate P. vivax liver schizonts. We then proceeded to feed cultures every day, replacing the compounds until day 8 post-infection. Cells were fixed with 4% PFA, permeabilized with 1% Triton X-100, blocked with 2% BSA, and stained with DAPI and PvUIS4 antibodies to detect schizonts and hypnozoites forms by confocal microscopy. For antibody dilutions, PvUIS4 (kind gift from Dr. Noah Sather, Seattle Children’s Research Institute) was diluted 1:250 and the secondary antibody was anti-mouse AlexaFluor-594 (Cat # A-11005; RRID: AB_2534073) diluted 1:1000. DAPI was diluted 1:2000. The images were processed, analyzed and outlier cells were removed using IMARIS (Bitplane Inc.) image analysis software.

PvNMT = PvNMT (Plasmodium vivax, UniProt A5K1A2); test: NMT activity assay (CPM detection of free CoA), PvNMT; settings: for IC50: PvNMT IC50, mean of two or more determinations; for SI: enzyme selectivity, HsNMT IC50/PvNMT IC50
HsNMT1 = target: T1, HsNMT1 (Homo sapiens, UniProt P30419); test: NMT activity assay (CPM detection of free CoA), HsNMT
T1 sequence (P30419 1-496): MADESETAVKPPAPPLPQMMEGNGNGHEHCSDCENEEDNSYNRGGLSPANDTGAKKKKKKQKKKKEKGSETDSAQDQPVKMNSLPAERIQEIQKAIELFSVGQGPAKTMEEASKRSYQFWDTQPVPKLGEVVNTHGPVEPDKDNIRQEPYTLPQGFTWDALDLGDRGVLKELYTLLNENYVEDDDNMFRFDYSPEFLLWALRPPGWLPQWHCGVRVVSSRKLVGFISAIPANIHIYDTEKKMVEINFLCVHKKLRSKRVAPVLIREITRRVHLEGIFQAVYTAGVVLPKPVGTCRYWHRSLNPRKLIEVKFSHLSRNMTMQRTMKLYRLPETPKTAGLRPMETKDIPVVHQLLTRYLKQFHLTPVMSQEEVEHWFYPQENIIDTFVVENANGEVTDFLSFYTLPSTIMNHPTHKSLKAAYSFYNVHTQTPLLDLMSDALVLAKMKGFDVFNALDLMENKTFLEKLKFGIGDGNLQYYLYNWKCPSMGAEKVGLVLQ

[1] = isolate 1, technical replicates (Fig. 6C)
[2] = isolate 2, technical replicates (Fig. 6C)
[3] = isolate 3, technical replicates (Fig. 6C)

PvNMT, sequence (A5K1A2 entry or part of it): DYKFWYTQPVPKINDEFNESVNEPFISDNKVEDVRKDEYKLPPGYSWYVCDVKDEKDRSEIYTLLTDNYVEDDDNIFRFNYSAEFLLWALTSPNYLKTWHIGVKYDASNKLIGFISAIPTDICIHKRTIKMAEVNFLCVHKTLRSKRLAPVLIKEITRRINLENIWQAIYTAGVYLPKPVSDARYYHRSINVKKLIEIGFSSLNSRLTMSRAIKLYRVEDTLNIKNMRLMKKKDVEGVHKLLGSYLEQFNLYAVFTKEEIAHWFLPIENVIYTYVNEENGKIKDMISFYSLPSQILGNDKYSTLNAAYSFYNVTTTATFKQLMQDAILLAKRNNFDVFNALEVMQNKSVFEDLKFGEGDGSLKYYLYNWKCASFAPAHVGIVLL

Cc1nn(C)c(C)c1CCOc1cc(F)ccc1-c1cccc(N2CCNCC2)c1 [Compound 12f]
Percentage of live HepG2 cells compared with diluent controls (HepG2 cells; 1 μM): 101.889% and 101.421%
Percentage of live HepG2 cells compared with diluent controls (HepG2 cells; 2.5 μM): 101.941% and 101.11%
Percentage of live HepG2 cells compared with diluent controls (HepG2 cells; 5 μM): 95.3928% and 101.733%
Percentage of live HepG2 cells compared with diluent controls (HepG2 cells; 10 μM): 95.3148% and 109.373%
Percentage of live HepG2 cells compared with diluent controls (HepG2 cells; 20 μM): 87.3113% and 87.6751%
P. falciparum blood-stage development (parasite DNA level fluorescence) (P. falciparum NF54; 0.625 uM): 118.6
P. falciparum blood-stage development (parasite DNA level fluorescence) (P. falciparum NF54; 1.25 uM): 121.1
P. falciparum blood-stage development (parasite DNA level fluorescence) (P. falciparum NF54; 2.5 uM): 112.3
P. falciparum blood-stage development (parasite DNA level fluorescence) (P. falciparum NF54; 5 uM): 99.32
P. falciparum blood-stage development (parasite DNA level fluorescence) (P. falciparum NF54; 10 uM): 89.25
IC50 (P. falciparum NF54): 610 nM
Hypnozoites per well (P. vivax hypnozoites; 1.25 uM): 4 (2×) and 2
Hypnozoites per well (P. vivax hypnozoites; 2.5 uM): 3
Hypnozoites per well (P. vivax hypnozoites; 5 uM): 2 and 3 (2×)
Hypnozoites per well (P. vivax hypnozoites; 10 uM): 1
Number of liverstage hypnozoites per well (P. vivax hypnozoites; [1]): 1 per well (2×) and 0 per well
Number of liverstage hypnozoites per well (P. vivax hypnozoites; [2]): 1 per well (2×) and 0 per well
Number of liverstage hypnozoites per well (P. vivax hypnozoites; [3]): 0 per well
Hypnozoites per well (P. vivax hypnozoites; 20 uM): 1 (2×) and 0
IC50 (P. vivax hypnozoites): 1500 nM
hypnozoites (fold change to DMSO) mean diff (P. vivax hypnozoites; isolate 1, 20 µM): 0.939
hypnozoites (fold change to DMSO) mean diff (P. vivax hypnozoites; isolate 2, 20 µM): 0.931
IC50 (PvNMT): 15.9 nM
SI (PvNMT): 43.9
IC50 (HsNMT1): 699 nM

c1cncc(CCOc2cccnc2-c2cccc(N3CCNCC3)c2)c1 [Compound 12g]
Percentage of live HepG2 cells compared with diluent controls (HepG2 cells; 1 μM): 99.9402% and 99.6024%
Percentage of live HepG2 cells compared with diluent controls (HepG2 cells; 2.5 μM): 99.7323% and 98.2512%
Percentage of live HepG2 cells compared with diluent controls (HepG2 cells; 5 μM): 98.4851% and 90.6374%
Percentage of live HepG2 cells compared with diluent controls (HepG2 cells; 10 μM): 86.6876% and 91.5989%
Percentage of live HepG2 cells compared with diluent controls (HepG2 cells; 20 μM): 78.4502% and 78.1644%
P. falciparum blood-stage development (parasite DNA level fluorescence) (P. falciparum NF54; 0.625 uM): 115
P. falciparum blood-stage development (parasite DNA level fluorescence) (P. falciparum NF54; 1.25 uM): 117.7
P. falciparum blood-stage development (parasite DNA level fluorescence) (P. falciparum NF54; 2.5 uM): 114.7
P. falciparum blood-stage development (parasite DNA level fluorescence) (P. falciparum NF54; 5 uM): 99.89
P. falciparum blood-stage development (parasite DNA level fluorescence) (P. falciparum NF54; 10 uM): 87.22
IC50 (P. falciparum NF54): 600 nM
Hypnozoites per well (P. vivax hypnozoites; 1.25 uM): 5 and 0 and 3
Hypnozoites per well (P. vivax hypnozoites; 2.5 uM): 3 and 4 and 0
Hypnozoites per well (P. vivax hypnozoites; 5 uM): 1 and 2 and 0
Hypnozoites per well (P. vivax hypnozoites; 10 uM): 1 and 0 (2×)
Number of liverstage hypnozoites per well (P. vivax hypnozoites; [1]): 1 per well and 0 per well (2×)
Number of liverstage hypnozoites per well (P. vivax hypnozoites; [2]): 1 per well and 0 per well (2×)
Number of liverstage hypnozoites per well (P. vivax hypnozoites; [3]): 0 per well
Hypnozoites per well (P. vivax hypnozoites; 20 uM): 1 and 0 (2×)
IC50 (P. vivax hypnozoites): 1200 nM
hypnozoites (fold change to DMSO) mean diff (P. vivax hypnozoites; isolate 1, 20 µM): 0.785
hypnozoites (fold change to DMSO) mean diff (P. vivax hypnozoites; isolate 2, 20 µM): 0.966
IC50 (PvNMT): 104 nM
SI (PvNMT): 152.8
IC50 (HsNMT1): 15900 nM

c1cncc(CCOc2ccccc2-c2ccnc(N3CCNCC3)c2)c1 [Compound 12j]
Percentage of live HepG2 cells compared with diluent controls (HepG2 cells; 1 μM): 85.5703% and 82.8678%
Percentage of live HepG2 cells compared with diluent controls (HepG2 cells; 2.5 μM): 74.0847% and 82.3481%
Percentage of live HepG2 cells compared with diluent controls (HepG2 cells; 5 μM): 81.2567% and 75.202%
Percentage of live HepG2 cells compared with diluent controls (HepG2 cells; 10 μM): 74.4485% and 73.0193%
Percentage of live HepG2 cells compared with diluent controls (HepG2 cells; 20 μM): 72.4216% and 71.8759%
P. falciparum blood-stage development (parasite DNA level fluorescence) (P. falciparum NF54; 0.625 uM): 106.8
P. falciparum blood-stage development (parasite DNA level fluorescence) (P. falciparum NF54; 1.25 uM): 108.9
P. falciparum blood-stage development (parasite DNA level fluorescence) (P. falciparum NF54; 2.5 uM): 108.6
P. falciparum blood-stage development (parasite DNA level fluorescence) (P. falciparum NF54; 5 uM): 101.9
P. falciparum blood-stage development (parasite DNA level fluorescence) (P. falciparum NF54; 10 uM): 74.22
IC50 (P. falciparum NF54): 1250 nM
Hypnozoites per well (P. vivax hypnozoites; 1.25 uM): 9 and 6 and 12
Hypnozoites per well (P. vivax hypnozoites; 2.5 uM): 13 and 12 and 8
Hypnozoites per well (P. vivax hypnozoites; 5 uM): 19 and 3 and 13
Hypnozoites per well (P. vivax hypnozoites; 10 uM): 13 and 10
Number of liverstage hypnozoites per well (P. vivax hypnozoites; [1]): 0 per well (2×) and 3 per well
Number of liverstage hypnozoites per well (P. vivax hypnozoites; [2]): 0 per well (2×) and 3 per well
Number of liverstage hypnozoites per well (P. vivax hypnozoites; [3]): 0 per well
Hypnozoites per well (P. vivax hypnozoites; 20 uM): 0 (2×) and 3
IC50 (P. vivax hypnozoites): 12000 nM
hypnozoites (fold change to DMSO) mean diff (P. vivax hypnozoites; isolate 1, 20 µM): 0.985
hypnozoites (fold change to DMSO) mean diff (P. vivax hypnozoites; isolate 2, 20 µM): 0.897
IC50 (PvNMT): 124 nM
SI (PvNMT): 220.6
IC50 (HsNMT1): 27400 nM

Fc1ccc(-c2ccnc(N3CCNCC3)c2)c(OCCc2cccnc2)c1 [Compound 12l]
Percentage of live HepG2 cells compared with diluent controls (HepG2 cells; 1 μM): 89.7539% and 87.5192%
Percentage of live HepG2 cells compared with diluent controls (HepG2 cells; 2.5 μM): 87.1294% and 87.1034%
Percentage of live HepG2 cells compared with diluent controls (HepG2 cells; 5 μM): 86.8955% and 86.7396%
Percentage of live HepG2 cells compared with diluent controls (HepG2 cells; 10 μM): 88.7665% and 86.09%
Percentage of live HepG2 cells compared with diluent controls (HepG2 cells; 20 μM): 76.2415% and 75.9816%
P. falciparum blood-stage development (parasite DNA level fluorescence) (P. falciparum NF54; 0.625 uM): 110.1
P. falciparum blood-stage development (parasite DNA level fluorescence) (P. falciparum NF54; 1.25 uM): 110.9
P. falciparum blood-stage development (parasite DNA level fluorescence) (P. falciparum NF54; 2.5 uM): 110.4
P. falciparum blood-stage development (parasite DNA level fluorescence) (P. falciparum NF54; 5 uM): 99.67
P. falciparum blood-stage development (parasite DNA level fluorescence) (P. falciparum NF54; 10 uM): 86.75
IC50 (P. falciparum NF54): 370 nM
Hypnozoites per well (P. vivax hypnozoites; 1.25 uM): 5 and 8 and 2
Hypnozoites per well (P. vivax hypnozoites; 2.5 uM): 6 and 4 and 1
Hypnozoites per well (P. vivax hypnozoites; 5 uM): 5 and 7 and 0
Hypnozoites per well (P. vivax hypnozoites; 10 uM): 1 and 14 and 0
Number of liverstage hypnozoites per well (P. vivax hypnozoites; [1]): 0 per well (2×) and 5 per well
Number of liverstage hypnozoites per well (P. vivax hypnozoites; [2]): 0 per well (2×) and 5 per well
Number of liverstage hypnozoites per well (P. vivax hypnozoites; [3]): 0 per well
Hypnozoites per well (P. vivax hypnozoites; 20 uM): 0 (2×) and 5
IC50 (P. vivax hypnozoites): 2100 nM
hypnozoites (fold change to DMSO) mean diff (P. vivax hypnozoites; isolate 1, 20 µM): 1.000
hypnozoites (fold change to DMSO) mean diff (P. vivax hypnozoites; isolate 2, 20 µM): 0.828
IC50 (PvNMT): 23.4 nM
SI (PvNMT): 73
IC50 (HsNMT1): 1710 nM
